Activity calls are given as the source filed them. No cut-off for these calls is given here.

The test system of one data set is HEK293. The experiment in a line: Cytotoxicity against HEK293 cells assessed as inhibition of cell viability at 50 uM after 48 hrs by SRB assay relative to vehicle-treated control. To be noted: human, hek293, 48 h. Type of data set: cell-based. For orientation: The SRB assay estimates cell density from bound dye.
Data set [1] deals with T1, Oxysterols receptor LXR-beta (Mus musculus) (UniProt Q60644).
T1 sequence (whole entry): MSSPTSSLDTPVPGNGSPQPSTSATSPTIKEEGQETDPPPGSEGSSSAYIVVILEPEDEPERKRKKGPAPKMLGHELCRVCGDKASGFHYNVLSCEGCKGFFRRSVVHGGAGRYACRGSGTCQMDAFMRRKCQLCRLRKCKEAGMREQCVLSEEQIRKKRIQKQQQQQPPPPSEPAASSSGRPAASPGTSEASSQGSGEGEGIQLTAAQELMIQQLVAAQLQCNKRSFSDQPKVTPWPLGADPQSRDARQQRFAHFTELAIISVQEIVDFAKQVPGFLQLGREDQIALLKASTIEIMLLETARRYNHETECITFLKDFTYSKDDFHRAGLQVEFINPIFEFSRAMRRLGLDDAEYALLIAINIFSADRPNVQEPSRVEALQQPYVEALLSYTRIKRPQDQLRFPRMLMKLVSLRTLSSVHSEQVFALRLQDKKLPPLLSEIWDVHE
Briefly: Agonist activity at LXRbeta in mouse BV2 cells assessed as degradation of intracellular amyloid beta42 preincubated for 18 hrs followed by soluble amyloid beta42 addition measured after 24 hrs by ELISA. Type of data set: cell-based. The settings on record: BV-2. In general terms: In an ELISA, binding on a coated surface is turned into a signal by an enzyme label.

Data set [2] relates to Mus musculus. Briefly: Antialzheimer activity in double transgenic B6C3 mouse overexpressing APP swedish mutant and PSEN1dE9 assessed as reduction of amyloid beta42 plaque load in hippocampus at 10 mg/kg, ip administered 3 times per week measured after 6 weeks by OC staining-based fluorescence microscopic analysis relative to vehicle-treated control. Type of data set: functional. Set-up: scale not given: the % may be the effect or the level left. The settings on record: route intraperitoneal.

For data set [3], the target named is T2, Oxysterols receptor LXR-beta (Homo sapiens) (UniProt P55055).
T2 sequence (whole entry): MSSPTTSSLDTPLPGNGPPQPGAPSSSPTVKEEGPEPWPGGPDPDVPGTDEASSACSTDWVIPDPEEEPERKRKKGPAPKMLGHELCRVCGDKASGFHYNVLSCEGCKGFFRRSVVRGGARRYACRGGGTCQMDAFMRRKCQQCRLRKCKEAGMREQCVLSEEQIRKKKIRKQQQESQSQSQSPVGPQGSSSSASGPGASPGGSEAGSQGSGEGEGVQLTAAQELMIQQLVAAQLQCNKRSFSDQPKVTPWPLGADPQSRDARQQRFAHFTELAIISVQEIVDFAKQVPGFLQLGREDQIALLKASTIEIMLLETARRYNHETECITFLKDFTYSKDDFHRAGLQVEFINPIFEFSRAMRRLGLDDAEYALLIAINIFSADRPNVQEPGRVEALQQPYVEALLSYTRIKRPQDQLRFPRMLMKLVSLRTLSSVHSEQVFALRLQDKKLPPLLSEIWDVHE
Briefly: Agonist activity at human LXRbeta transfected in HEK293 cells at 1 uM after 24 hrs by luciferase reporter gene assay relative to vehicle-treated control. Type of data set: cell-based. Background: A reporter such as luciferase makes a cellular process visible.

The target in data set [4] is T1, Oxysterols receptor LXR-beta (Mus musculus). Briefly: Agonist activity at LXRbeta in mouse BV2 cells assessed as degradation of intracellular soluble amyloid beta42 at 1 uM preincubated for 18 hrs followed by soluble amyloid beta42 addition measured after 24 hrs by ELISA relative to vehicle-treated control. Type of data set: cell-based. The settings on record: BV-2.

Data set [5] shares this target. Briefly: Agonist activity at LXRbeta in mouse RAW264.7 cells assessed as induction of ABCA1 promoter activation after 24 hrs by Dual-Glo luciferase reporter gene assay. Type of data set: cell-based.
The subject of data set [6] is Mus musculus. The experiment in a line: Antialzheimer activity in double transgenic B6C3 mouse overexpressing APP swedish mutant and PSEN1dE9 assessed as reduction of insoluble amyloid beta42 level at 10 mg/kg, ip administered 3 times per week measured after 6 weeks by ELISA relative to vehicle-treated control. Type of data set: functional. Details: scale not given: the % may be the effect or the level left. To be noted: route intraperitoneal.

The next data set has as its system BV-2. Briefly: Cytotoxicity against mouse BV2 cells assessed as inhibition of cell viability at 50 uM after 48 hrs by SRB assay relative to vehicle-treated control. Type of data set: cell-based. To be noted: bv-2, 48 h.
In data set [7] the test system is Mus musculus. The experiment in a line: Antialzheimer activity in double transgenic B6C3 mouse overexpressing APP swedish mutant and PSEN1dE9 assessed as upregulation of apoE protein expression in brain at 10 mg/kg, ip administered 3 times per week measured after 6 weeks by Western blot analysis relative to vehicle-treated control. Type of data set: functional. To be noted: route intraperitoneal.

Data set [8] has as its target T1, Oxysterols receptor LXR-beta (Mus musculus). The experiment in a line: Agonist activity at LXRbeta in mouse BV2 cells assessed as upregulation of apoE protein expression at 0.1 uM after 48 hrs by Western blot analysis relative to vehicle-treated control. Type of data set: cell-based. To be noted: BV-2.
For data set [9] the target is unchanged. Briefly: Agonist activity at LXRbeta in mouse BV2 cells assessed as upregulation of apoE protein expression at 10 uM after 48 hrs by Western blot analysis relative to vehicle-treated control. To be noted: BV-2. Type of data set: cell-based.
Data set [10] concerns the target T3, Oxysterols receptor LXR-alpha (Homo sapiens) (UniProt Q13133).
T3 sequence (whole entry): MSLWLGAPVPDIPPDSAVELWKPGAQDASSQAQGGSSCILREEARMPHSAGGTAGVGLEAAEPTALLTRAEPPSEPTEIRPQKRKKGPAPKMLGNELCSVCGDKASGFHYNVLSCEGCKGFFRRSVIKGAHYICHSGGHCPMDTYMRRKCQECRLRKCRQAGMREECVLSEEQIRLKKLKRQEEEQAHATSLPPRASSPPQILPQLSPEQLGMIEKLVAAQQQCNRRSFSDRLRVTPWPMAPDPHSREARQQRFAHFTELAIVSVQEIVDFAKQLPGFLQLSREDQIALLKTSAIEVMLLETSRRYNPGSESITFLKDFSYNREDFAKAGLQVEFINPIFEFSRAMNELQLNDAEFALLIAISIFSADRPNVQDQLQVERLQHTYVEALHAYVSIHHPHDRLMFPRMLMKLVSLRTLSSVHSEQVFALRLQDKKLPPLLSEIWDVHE
Briefly: Agonist activity at human LXRalpha transfected in HEK293 cells at 0.1 uM after 24 hrs by luciferase reporter gene assay relative to vehicle-treated control. Type of data set: cell-based.

For data set [11], the target named is T1, Oxysterols receptor LXR-beta (Mus musculus). Briefly: Agonist activity at LXRbeta in mouse RAW264.7 cells assessed as induction of ABCA1 promoter activation at 1 uM after 24 hrs by Dual-Glo luciferase reporter gene assay relative to vehicle-treated control. Type of data set: cell-based.
In data set [12] the test system is Mus musculus. Briefly: Antialzheimer activity in double transgenic B6C3 mouse overexpressing APP swedish mutant and PSEN1dE9 assessed as reduction of amyloid beta42 plaque load in cortex at 10 mg/kg, ip administered 3 times per week measured after 6 weeks by OC staining-based fluorescence microscopic analysis relative to vehicle-treated control. Type of data set: functional. To be noted: route intraperitoneal. Details: scale not given: the % may be the effect or the level left.

Data set [13] concerns Mus musculus. Briefly: Antialzheimer activity in double transgenic B6C3 mouse overexpressing APP swedish mutant and PSEN1dE9 assessed as reduction of amyloid beta42 plaque number in brain at 10 mg/kg, ip administered 3 times per week measured after 6 weeks by thioflavin S staining-based fluorescence microscopic analysis relative to vehicle-treated control. Type of data set: functional, organism-based. Set-up: dose 10 mg/kg.

The test system of data set [14] is HepG2. The experiment in a line: Induction of intracellular triglyceride accumulation in human HepG2 cells at 1 uM after 4 days relative to vehicle-treated control. Type of data set: cell-based. The settings on record: hepg2, 96 h.
Data set [15] deals with HepG2. The experiment in a line: Induction of intracellular triglyceride accumulation in human HepG2 cells at 10 uM after 4 days relative to vehicle-treated control. Type of data set: cell-based. The settings on record: hepg2, 96 h.

As to `Cc1ccc(/C=C/C(=O)c2ccc(N)cc2O)o1`, the Activity entry is “Non-toxic” in the data set with HEK293; “Dose-dependent effect” in data set [1]; 28% with Mus musculus [2]; 59% in [4]; “Dose-dependent effect” in [5]; 26% in the data set on Mus musculus [6]. Further, the Activity result with BV-2 is recorded as “Non-toxic”; with Mus musculus [12], 30%; with HepG2 [14], -0.3%; with HepG2 [15], -0.3%. Moreover, the fold change (FC) came out at 1.79 in data set [3]; 1.6 with Mus musculus [7]; 1.6 in data set [8]; 2.7 in data set [9]; 0.99 in data set [10]; 2.09 in data set [11]. Besides, in the data set with Mus musculus [13], the outcome was Active.

(Values after ChEMBL document CHEMBL2417463, “Synthesis and identification of new flavonoids targeting liver X receptor β involved pathway as potential facilitators of Aβ clearance with reduced lipid accumulation” (J Med Chem, 2013).)
